Patent US20150290240A1 (Fred Hulchinson Cancer Research Center, priority 2012, published 2015)

Legend:
[1] = Oxidation of selenide solutions in water or glutathione, observed visually; assay type: physicochemical; settings: 50 mM selenide in 150 mM GSH vs in water; 8 minutes immediately following preparation
[2] = test system: mouse model of heart attack (heart function); test: Echocardiography 2 days post the heart attack procedure; assay type: in vivo, mice; settings: 800 μg/kg; 48 hours of reperfusion after 60 min LAD ligation; vs saline
Procedure: (§1) For the myocardial infarction model, open chest ligation of the left descending coronary artery (LAD ligation) was performed in mice. At 55 minutes post initiation of ischemia, either vehicle or test agent was injected into the femoral vein of each mouse. The heart muscle was reperfused by releasing the ligature at 60 minutes post initiation of ischemia. Mice were then sacrificed at either 2 hours or 2 days post reperfusion for infarct size measurement and blood analysis or heart function assays, respectively, as described below.
To further test the hypothesis that NaHSe improves outcome following myocardial infarction, mice were survived for 2 days post the heart attack procedure and then subjected to echocardiography.

cardiac troponin I = test: Plasma cardiac troponin I by ELISA after LAD ligation and 2 hour reperfusion; assay type: in vivo, mice; settings: end of 2 hour reperfusion
Procedure: as §1
To provide an independent means of testing for improvement, the level of a heart specific protein, cardiac troponin I, was assessed in the blood of the animals after the 2 hour reperfusion period. Five minutes prior to reperfusion, three groups of mice were given 200 μg/kg NaHSe, 50 μg/kg NaHSe, or saline by I.V. injection through the femoral vein. At the end of the 2 hour reperfusion, blood was collected and plasma cardiac troponin I was measured by ELISA.

[3] = test system: glutathione peroxidase 2 (GPX-2); test: Antibody staining of heart sections for glutathione peroxidase 2; assay type: in vivo, mice; settings: 800 μg/kg; compared to saline and sham (no heart attack) animals
Procedure: as §1
Therefore, the hypothesis that the therapeutic value of sodium selenide is its accumulation in cardiomycytes during reperfusion for the synthesis of selenoproteins, such as glutathione peroxidase, was tested. Heart sections from animals that were saline treated or NaHSe (800 μg/kg) treated were stained with an antibody specific for the selenoprotein glutathione peroxidase 2 (GPX-2).

[4] = test system: mouse model of heart attack (myocardial ischemia and reperfusion); test: Infarct size by morphometry (TTC and Evans blue) after LAD ligation and 2 hours of reperfusion; assay type: in vivo, mice
Procedure: as §1
In order to examine the effect of NaHSe on myocardial infarct size, mice were subjected to LAD ligation, and after 2 hours of reperfusion, infarct size was measured by morphometry (FIG. 1). Six groups of mice were utilized in this study, including a saline vehicle group and five test groups that received 50, 200, 800, 1600 and 2400 μg/kg of NaHSe. To be certain that all animals in the study were treated in a similar way, the area at risk (AAR) as a proportion of the left ventricle was determined (FIG. 1, left panel).
Area at risk and infarct size (Inf) were measured using the specific dyes TTC and Evans blue. Processed images were generated in an unbiased way by setting constant thresholds and allowing Photoshop® to generate the images that were quantitated to generate FIG. 1.

[5] = test system: neutrophils in the myocardium; test: Neutrophil count in heart sections following the heart attack procedure; assay type: in vivo, mice; settings: vs saline treated animals
Procedure: as §1
In order to determine whether NaHSe decreased inflammation in the hearts of animals following the heart attack procedure, neutrophils were counted in sections of hearts of saline and NaHSe treated animals.

[SeH2] [NaHSe]
oxidation of selenide (dark oxidized forms in solution) [1]: reduced levels of oxidation
fractional shortening [2]: statistically significant improvement
left ventricular ejection fraction [2]: statistically significant improvement
plasma cardiac troponin I compared to saline control (cardiac troponin I; 50 μg/kg I.V. 5 min prior to reperfusion): statistically significant decrease
plasma cardiac troponin I compared to saline control (cardiac troponin I; 200 μg/kg I.V. 5 min prior to reperfusion): statistically significant decrease
GPX-2 antibody staining of heart sections [3]: striking increase
benefit relative to infarct size vs saline ([4]; 800 μg/kg (0.8 mg/kg) at reperfusion, selenide vs selenite comparison (FIG. 6)): provided benefit
reduction in infarct size in comparison to vehicle alone ([4]; 800 μg/kg I.V. femoral vein 5 min prior to reperfusion, 60 min LAD ligation, 2 hours reperfusion): 88%
infarct size vs saline group ([4]; 50, 200, 800, 1600 and 2400 μg/kg I.V. 5 min prior to reperfusion, 2 hours reperfusion): statistically significant dose dependent decreases
accumulation of neutrophils in the myocardium [5]: significantly reduced
